Assay results: patent US11254686B1 (Corvus Pharmaceuticals, Inc., priority 2017, dated 2022)

Legend:
Format in all cases: biochemical
adenosine A1 receptor = adenosine A1 receptor (Homo sapiens (Human), UniProt P30542); assay: Adenosine receptor activity assay (Table 1), A1 cAMP
Description: (§1) Table 1. Compounds (e.g., Adenosine Receptor modulators) and activity assay results. The legend is as follows: A=<10 nM; B=10-50 nM; C=50-100 nM; D=100-500; and E=>500 nM. The ratio corresponds to the A2A activity to the A2B activity; or A2A/A2B.

adenosine A2A receptor = adenosine A2A receptor (Homo sapiens (Human), UniProt P29274); assay: Adenosine receptor activity assay (Table 1), A2A activity; settings: read-out: Ave A2A cAMP IC50
Sequence of adenosine A2A receptor (P29274 whole entry): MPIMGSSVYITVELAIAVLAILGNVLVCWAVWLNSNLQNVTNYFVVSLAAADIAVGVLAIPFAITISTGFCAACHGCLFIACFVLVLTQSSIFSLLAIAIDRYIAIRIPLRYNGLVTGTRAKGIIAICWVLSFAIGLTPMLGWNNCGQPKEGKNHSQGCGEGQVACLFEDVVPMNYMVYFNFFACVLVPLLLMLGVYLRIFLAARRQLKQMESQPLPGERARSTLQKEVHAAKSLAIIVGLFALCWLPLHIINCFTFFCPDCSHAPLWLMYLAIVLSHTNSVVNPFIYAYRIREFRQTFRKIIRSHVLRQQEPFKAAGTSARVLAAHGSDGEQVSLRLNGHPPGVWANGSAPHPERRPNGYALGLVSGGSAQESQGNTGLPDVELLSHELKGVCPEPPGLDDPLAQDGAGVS

adenosine A3 receptor = adenosine A3 receptor (Homo sapiens (Human), UniProt P0DMS8); assay: Adenosine receptor activity assay (Table 1), A3 cAMP
Sequence of adenosine A3 receptor (P0DMS8 whole entry): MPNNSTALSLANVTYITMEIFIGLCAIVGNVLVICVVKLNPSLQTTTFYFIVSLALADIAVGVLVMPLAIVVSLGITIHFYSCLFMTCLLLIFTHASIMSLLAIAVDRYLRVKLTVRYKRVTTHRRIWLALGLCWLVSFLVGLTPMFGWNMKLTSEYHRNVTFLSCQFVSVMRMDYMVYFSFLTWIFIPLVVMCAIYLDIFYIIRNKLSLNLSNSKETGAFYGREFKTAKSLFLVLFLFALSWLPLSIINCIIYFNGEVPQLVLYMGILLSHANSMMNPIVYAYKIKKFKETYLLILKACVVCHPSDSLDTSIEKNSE
Description: as §1

adenosine A2B receptor = adenosine A2B receptor (Homo sapiens (Human), UniProt P29275); assay: Adenosine receptor activity assay (Table 1), A2B activity; settings: for Ratio: A2A activity to the A2B activity, A2A/A2B; for IC50: read-out: Ave A2B cAMP IC50
Sequence of adenosine A2B receptor (P29275 whole entry): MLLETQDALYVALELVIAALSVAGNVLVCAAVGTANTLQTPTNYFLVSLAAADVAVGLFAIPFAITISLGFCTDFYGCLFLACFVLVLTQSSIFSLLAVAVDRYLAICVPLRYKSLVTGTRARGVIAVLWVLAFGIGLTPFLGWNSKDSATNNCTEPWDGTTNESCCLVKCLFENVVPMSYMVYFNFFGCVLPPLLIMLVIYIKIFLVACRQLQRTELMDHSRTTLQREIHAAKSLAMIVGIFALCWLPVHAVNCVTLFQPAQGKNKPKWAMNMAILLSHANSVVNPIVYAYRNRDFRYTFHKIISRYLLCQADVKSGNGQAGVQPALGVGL

Sequence of adenosine A1 receptor (P30542 whole entry): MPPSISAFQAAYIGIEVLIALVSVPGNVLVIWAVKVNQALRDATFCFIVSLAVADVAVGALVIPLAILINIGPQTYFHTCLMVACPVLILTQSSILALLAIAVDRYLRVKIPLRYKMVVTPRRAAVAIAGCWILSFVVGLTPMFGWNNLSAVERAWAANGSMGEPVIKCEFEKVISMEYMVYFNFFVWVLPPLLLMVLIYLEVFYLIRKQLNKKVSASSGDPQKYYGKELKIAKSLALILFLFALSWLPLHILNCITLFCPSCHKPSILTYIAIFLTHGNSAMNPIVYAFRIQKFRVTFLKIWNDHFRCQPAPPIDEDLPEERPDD

IC50 (adenosine A1 receptor) | IC50 (adenosine A2A receptor) | IC50 (adenosine A3 receptor) | Ratio (adenosine A2B receptor) | IC50 (adenosine A2B receptor) | Structure (SMILES)
> 500 nM | 100 to 500 nM | > 500 nM | 18.71 |  | CC(=O)NC1CN(C(=O)c2nc(N[C@@H](C)c3cncc(F)c3)nc3cc(C)sc23)C1 [Example Z543, (S)—N-(1-(2-((1-(5-Fluoropyridin-3-yl)ethyl)amino)-6-methylthieno[3,2-d]pyrimidine-4-carbonyl)azetidin-3-yl)acetamide]
> 500 nM | 10 to 50 nM | 50 to 100 nM | 2.90 | 10 to 50 nM | Cc1cc2nc(N[C@@H](C)c3cncc(F)c3)nc(C(=O)N3CC(NC(=O)OC(C)C)C3)c2s1 [Example Z511, Isopropyl (S)-(1-(2-((1-(5-fluoropyridin-3-yl)ethyl)amino)-6-methylthieno[3,2-d]pyrimidine-4-carbonyl)azetidin-3-yl)carbamate]
> 500 nM | 100 to 500 nM | > 500 nM | 4.15 | 10 to 50 nM | C[C@H](Nc1nc(C(=O)N2CC(CNC(=O)C(C)(C)C)C2)c2sccc2n1)c1cncc(F)c1 [Example Z529, (S)—N-((1-(2-((1-(5-Fluoropyridin-3-yl)ethyl)amino)thieno[3,2-d]pyrimidine-4-carbonyl)azetidin-3-yl)methyl)pivalamide]
> 500 nM | 10 to 50 nM | > 500 nM | 1.68 | 10 to 50 nM | C[C@H](Nc1nc(C(=O)N2CC(CNC(=O)OCC(C)(C)C)C2)c2sccc2n1)c1cncc(F)c1 [Example Z581, Neopentyl (S)-((1-(2-((1-(5-fluoropyridin-3-yl)ethyl)amino)thieno[3,2-d]pyrimidine-4-carbonyl)azetidin-3-yl)methyl)carbamate]
> 500 nM | > 500 nM | > 500 nM | 524.78 | 10 to 50 nM | Cc1cc2nc(N[C@@H](C)c3cncc(F)c3)nc(C(=O)NCCC3CCNCC3)c2s1 [Example Z496, (S)-2-((1-(5-Fluoropyridin-3-yl)ethyl)amino)-6-methyl-N-(2-(piperidin-4-yl)ethyl)thieno[3,2-d]pyrimidine-4-carboxamide]
> 500 nM | 50 to 100 nM | > 500 nM | 6.37 | 10 to 50 nM | C[C@H](Nc1nc(C(=O)N2CC(CNC(=O)N(C)C)C2)c2sccc2n1)c1cncc(F)c1 [Example Z577, (S)-3-((1-(2-((1-(5-Fluoropyridin-3-yl)ethyl)amino)thieno[3,2-d]pyrimidine-4-carbonyl)azetidin-3-yl)methyl)-1,1-dimethylurea]
> 500 nM | > 500 nM | > 500 nM | 86.94 | 10 to 50 nM | Cc1cc2nc(N[C@@H](C)c3cncc(F)c3)nc(C(=O)N3CC[C@@H](NC(=O)OCc4ccccc4)C3)c2s1 [Example Z491, Benzyl ((R)-1-(2-(((S)-1-(5-fluoropyridin-3-yl)ethyl)amino)-6-methylthieno[3,2-d]pyrimidine-4-carbonyl)pyrrolidin-3-yl)carbamate]
< 10 nM | 10 to 50 nM | < 10 nM | 10.34 | < 10 nM | Cc1cc2nc(N[C@@H](C)c3cncc(F)c3)nc(C(=O)N3CC[C@@H]3C)c2s1 [Example Z596]
> 500 nM | 100 to 500 nM | > 500 nM | 7.52 | 10 to 50 nM | COc1ccc(CCCNC(=O)c2nc(N[C@@H](C)c3cncc(F)c3)nc3ccsc23)cc1 [Example Z422, (S)-2-((1-(5-Fluoropyridin-3-yl)ethyl)amino)-N-(3-(4-methoxyphenyl)propyl)thieno[3,2-d]pyrimidine-4-carboxamide]
> 500 nM | > 500 nM | > 500 nM | 22.42 | 10 to 50 nM | CCNC(=O)c1ccc(CCNC(=O)c2nc(N[C@@H](C)c3cncc(F)c3)nc3cc(C)sc23)cc1 [Example Z506, (S)—N-(4-(Ethylcarbamoyl)phenethyl)-2-((1-(5-fluoropyridin-3-yl)ethyl)amino)-6-methylthieno[3,2-d]pyrimidine-4-carboxamide]
100 to 500 nM | 50 to 100 nM | 50 to 100 nM | 38.37 | < 10 nM | C[C@H](Nc1nc(C(=O)N[C@@H]2CC[C@H](O)C2)c2sccc2n1)c1cncc(F)c1 [Example Z402, 2-(((S)-1-(5-Fluoropyridin-3-yl)ethyl)amino)-N-((1R,3S)-3-hydroxycyclopentyl)thieno[3,2-d]pyrimidine-4-carboxamide]
> 500 nM | 10 to 50 nM | > 500 nM | 3.87 | < 10 nM | C[C@H](Nc1nc(C(=O)N2CC(NC(=O)C3CCOC3)C2)c2sccc2n1)c1cncc(F)c1 (stereo partly drawn) [Example Z519, N-(1-(2-(((S)-1-(5-Fluoropyridin-3-yl)ethyl)amino)thieno[3,2-d]pyrimidine-4-carbonyl)azetidin-3-yl)tetrahydrofuran-3-carboxamide]
> 500 nM | > 500 nM | > 500 nM | 75.64 | < 10 nM | Cc1cc2nc(N[C@@H](C)c3cncc(F)c3)nc(C(=O)N3CC(CS(C)(=O)=O)C3)c2s1 [Example Z575, (S)-(2-((1-(5-Fluoropyridin-3-yl)ethyl)amino)-6-methylthieno[3,2-d]pyrimidin-4-yl)(3-((methylsulfonyl)methyl)azetidin-1-yl)methanone]
> 500 nM | > 500 nM | > 500 nM | 140.19 | 50 to 100 nM | CN[C@H]1CCN(C(=O)c2nc(N[C@@H](C)c3cncc(F)c3)nc3cc(C)sc23)C1 [Example Z561, (2-(((S)-1-(5-Fluoropyridin-3-yl)ethyl)amino)-6-methylthieno[3,2-d]pyrimidin-4-yl)((S)-3-(methylamino)pyrrolidin-1-yl)methanone]
> 500 nM | 100 to 500 nM | > 500 nM | 26.03 | < 10 nM | CNC(=O)NCC1CN(C(=O)c2nc(N[C@@H](C)c3cncc(F)c3)nc3ccsc23)C1 [Example Z576, (S)-1-((1-(2-((1-(5-Fluoropyridin-3-yl)ethyl)amino)thieno[3,2-d]pyrimidine-4-carbonyl)azetidin-3-yl)methyl)-3-methylurea]
> 500 nM | 10 to 50 nM | > 500 nM | 1.68 | 10 to 50 nM | C[C@H](Nc1nc(C(=O)N2CC(CN(C)C(=O)C(C)(C)C)C2)c2sccc2n1)c1cncc(F)c1 [Example Z551, (S)—N-((1-(2-((1-(5-Fluoropyridin-3-yl)ethyl)amino)thieno[3,2-d]pyrimidine-4-carbonyl)azetidin-3-yl)methyl)-N-methylpivalamide]
> 500 nM | 10 to 50 nM | 100 to 500 nM | 1.93 | 10 to 50 nM | Cc1csc2c(C(=O)N3CC(NC(=O)C(C)(C)C)C3)nc(N[C@@H](C)c3ccccn3)nc12 [Example Z559, (S)—N-(1-(7-Methyl-2-((1-(pyridin-2-yl)ethyl)amino)thieno[3,2-d]pyrimidine-4-carbonyl)azetidin-3-yl)pivalamide]
50 to 100 nM | 10 to 50 nM | 10 to 50 nM | 0.35 | 10 to 50 nM | Cc1csc2c(C(=O)NCc3ccccn3)nc(N[C@@H](C)c3ccccn3)nc12 [Example Z451, (S)-7-Methyl-2-((1-(pyridin-2-yl)ethyl)amino)-N-(pyridin-2-ylmethyl)thieno[3,2-d]pyrimidine-4-carboxamide]
> 500 nM | > 500 nM | > 500 nM | 36.71 | 10 to 50 nM | COc1ccc(CNC(=O)c2nc(N[C@@H](C)c3ccccn3)nc3cc(C)sc23)cn1 [Example Z469, (S)—N-((6-Methoxypyridin-3-yl)methyl)-6-methyl-2-((1-(pyridin-2-yl)ethyl)amino)thieno[3,2-d]pyrimidine-4-carboxamide]
> 500 nM | 10 to 50 nM | > 500 nM | 5.46 | < 10 nM | COCCC(=O)NC1CN(C(=O)c2nc(N[C@@H](C)c3cncc(F)c3)nc3cc(C)sc23)C1 [Example Z518, (S)—N-(1-(2-((1-(5-Fluoropyridin-3-yl)ethyl)amino)-6-methylthieno[3,2-d]pyrimidine-4-carbonyl)azetidin-3-yl)-3-methoxypropanamide]
> 500 nM | < 10 nM | 50 to 100 nM | 0.15 | 10 to 50 nM | C[C@H](Nc1nc(C(=O)N2CC(NC(=O)C(C)(C)C)C2)c2sccc2n1)c1cncc(F)c1 [Example Z594, (S)—N-(1-(2-((1-(5-Fluoropyridin-3-yl)ethyl)amino)thieno[3,2-d]pyrimidine-4-carbonyl)azetidin-3-yl)pivalamide]
100 to 500 nM | 100 to 500 nM | > 500 nM | 8.16 | 10 to 50 nM | Cc1cc2nc(N[C@@H](C)c3cncc(F)c3)nc(C(=O)NCCC3CN(C(=O)OC(C)(C)C)C3)c2s1 [Example Z485, tert-Butyl (S)-3-(2-(2-((1-(5-fluoropyridin-3-yl)ethyl)amino)-6-methylthieno[3,2-d]pyrimidine-4-carboxamido)ethyl)azetidine-1-carboxylate]
> 500 nM | 50 to 100 nM | 50 to 100 nM | 23.37 | < 10 nM | CCNC(=O)CC1CN(C(=O)c2nc(N[C@@H](C)c3cncc(F)c3)nc3cc(C)sc23)C1 [Example Z495, (S)—N-Ethyl-2-(1-(2-((1-(5-fluoropyridin-3-yl)ethyl)amino)-6-methylthieno[3,2-d]pyrimidine-4-carbonyl)azetidin-3-yl)acetamide]
